According to a melting point compilation (Tetko et al.; mined from patent text by program, amines drawn as free bases though some values may be those of a salt):

Compound	melting point [°C]
COC(=O)c1ccc2cc(OC)ccc2c1O	109 to 111
CCOc1c(NC(C)(C)C)c(=O)c1=O	80 to 82
O=Cc1ccc2cc3c(cc2c1)sc1ccccc13	182 to 185
CCCCCCOc1ccc(NC(=O)N(C)c2cccc(-c3ccc(CC4SC(=O)NC4=O)cc3)c2)cc1 (stereo not given)	146 to 148
N#CCc1ccc(OCCCN2CCN(C34CC5CC(CC(C5)C3)C4)CC2)cc1	136 to 138
COc1ccc2c(c1)S(=O)(=O)c1nccnc1N2	293 to 294
CN(C)C(=O)c1ccccc1Sc1ccc(Cl)cc1C=O	87 to 88
O=C(c1ccccc1)n1c2c(c3ccccc31)CC(C(=O)O)(C(=O)O)CC2	160
Cc1ccccc1-c1nc(Cl)c2ccccc2n1	103 to 104
COc1ccc(Cl)cc1C(=O)NCCc1ccc(Br)cc1	104 to 109
COc1cc(N)c(Cl)cc1C(=O)N[C@H]1CCN(CCNc2ncccc2C#N)C[C@H]1OC (relative stereo)	134
Clc1ccc(C2=NCCc3c2ccc2ccccc32)cc1	138 to 140
O=[N+]([O-])c1c(Br)nn(Cc2ccccc2)c1Br	128
COc1ccc(OCc2ccccc2)c(C(=O)C=Cc2cccc([N+](=O)[O-])c2)c1	108 to 110
O=C(CCCCCCNC(=O)c1cc2cccc3c2n1CCC3)NO	160 to 161
Cc1ncc2cc(C#N)c(O)nc2n1	> 200
CCOC(=O)c1cc2c(OCc3ccccc3)cccc2n1C	89 to 90.5
COc1cc(/C=C/c2cc(/C=C/c3ccc4cc[nH]c4c3)n[nH]2)ccc1OCc1ccccn1	236 to 243
CC(C)(C)c1ccc(OCC(O)CN2CCC3(CC2)CSC2=C(O3)c3cc(F)ccc3C(=O)C2=O)cc1 (stereo not given)	114 to 116
NCc1nc(-c2ncn3c2[C@@H]2CCN2C(=O)c2sccc2-3)no1	235 to 238

Compound	melting point [°C]
CC(=O)NCCN1CCN(c2cccccc2=O)CC1	117 to 118
CNC(=O)c1ccccc1Nc1nc(Nc2cccc3c2C(=O)N(C)CCN3C)ncc1Cl	204
Oc1ccc2c(c1)OC(CNCCCc1c[nH]c3ccc(O)cc13)CO2 (stereo not given)	140 to 144
CC12CCC3C(CC=C4CC(F)CCC43C)C1CCC2=O (stereo not given)	155 to 156
COc1cc2cc(OS(=O)(=O)C(F)(F)F)cnc2cc1OC	82.5 to 84
CC(=O)Nc1ccc2c(c1)C(CN1CC=C(c3cn(C)c4cc(Cl)ccc34)CC1)CC2 (stereo not given)	189 to 193
COC(=O)c1nc(-c2ccc(Cl)c(OC)c2F)nc(O)c1Br	192 to 195
COc1ccccc1CN1CCc2cc(OCc3ccccc3)c(OC)cc2C1	85 to 86
CCCC(=O)OCCOc1ccc2oc3cc(C#N)ccc3c(=O)c2c1	145 to 147
N#Cc1ccc(N2CCc3ccccc32)cc1	88.5 to 89.5
FC(F)(c1ccccc1)C(F)(F)c1ccccc1Br	54 to 55
CNCc1nnc2n1-c1ccc(Cl)cc1C(c1ccccc1F)=CC2	170 to 171
COC(=O)c1cc(-c2ccc(S(C)(=O)=O)cc2)n(-c2ccccc2)n1	190 to 193
CCN(C(=O)SC(C)(C)C)c1cn(-c2cccnc2)nc1Cl	91 to 93
COc1ncc(CC2SC(N3CCOCC3)=NC2=O)cc1-c1ccc(O)c(C23CC4CC(CC(C4)C2)C3)c1 (stereo not given)	175 to 177
CCc1sc2nc(C(=O)O)cn2c1C	243 to 245
Oc1cc2cc(-c3ccccc3Cl)sc2c(Cl)c1Cl	174 to 175
O=C(NCc1cccc(C(F)(F)F)c1)c1cncc2c1cnn2-c1ccc(F)cc1	172 to 173
COc1cc(OC)c(C(=O)CC(=O)c2cc(OC)c(OC)cc2OC)cc1OC	173 to 176
C=C(CC1(C)C(=O)c2ccc(Cl)cc2C1=O)c1cccc(Cl)n1 (stereo not given)	72 to 73
